Results on 16 molecules are retold here after patent US12122763B2, “Substituted piperidines for androgen receptor degradation” (UBIX THERAPEUTICS, INC., priority 2020, dated 2024).

The target in this assay is T1, Androgen Receptor (AR) protein (Homo sapiens, UniProt P10275, T878A).
T1 construct: endogenous in cells; host or cells: LNCaP
As to the kind of experiment: Androgen Receptor (AR) protein degradation assay in LNCaP cells, western blotting. As to conditions: 20 h; for inhibition at 0.01 µM: 0.01 μM compound; for inhibition at 0.1 µM: 0.1 μM compound; for inhibition at 1 µM: 1 μM compound. Type of assay: cell-based. In outline: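 LNCaP prostate cancer cells were cultured 3 days, then treated with compound for 20 h. Lysates in 1% SDS buffer were normalised by BCA, and 8 μg protein was run on 4–12% Bis-Tris gels. AR was immunoblotted with chemiluminescence, using GAPDH/β-actin as loading controls.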

T1 sequence (P10275 whole entry T878A): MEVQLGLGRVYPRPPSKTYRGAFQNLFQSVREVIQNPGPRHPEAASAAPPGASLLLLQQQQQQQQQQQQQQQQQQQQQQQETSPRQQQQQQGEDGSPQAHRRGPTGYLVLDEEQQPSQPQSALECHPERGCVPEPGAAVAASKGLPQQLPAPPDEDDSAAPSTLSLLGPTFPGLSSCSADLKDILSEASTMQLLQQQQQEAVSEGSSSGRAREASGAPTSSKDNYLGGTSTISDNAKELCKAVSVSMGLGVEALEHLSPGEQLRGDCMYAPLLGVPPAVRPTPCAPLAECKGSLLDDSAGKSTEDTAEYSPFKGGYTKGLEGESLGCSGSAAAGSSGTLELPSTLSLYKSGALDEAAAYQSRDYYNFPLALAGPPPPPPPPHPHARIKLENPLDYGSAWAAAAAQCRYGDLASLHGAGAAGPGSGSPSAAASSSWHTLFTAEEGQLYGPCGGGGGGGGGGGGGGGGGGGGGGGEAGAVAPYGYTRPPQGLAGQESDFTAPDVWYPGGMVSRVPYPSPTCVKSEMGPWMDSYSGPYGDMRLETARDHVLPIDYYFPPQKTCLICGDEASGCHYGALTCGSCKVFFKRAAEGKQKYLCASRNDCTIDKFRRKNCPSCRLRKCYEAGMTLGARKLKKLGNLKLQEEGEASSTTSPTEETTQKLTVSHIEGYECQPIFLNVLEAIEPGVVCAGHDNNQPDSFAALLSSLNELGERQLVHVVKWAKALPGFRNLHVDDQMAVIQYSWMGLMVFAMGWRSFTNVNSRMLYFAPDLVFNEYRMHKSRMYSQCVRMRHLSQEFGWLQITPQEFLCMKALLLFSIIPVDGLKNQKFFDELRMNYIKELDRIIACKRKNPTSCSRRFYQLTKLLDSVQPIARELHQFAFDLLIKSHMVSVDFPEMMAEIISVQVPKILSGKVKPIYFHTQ
T1 sequence (Q96SW2 whole entry partner): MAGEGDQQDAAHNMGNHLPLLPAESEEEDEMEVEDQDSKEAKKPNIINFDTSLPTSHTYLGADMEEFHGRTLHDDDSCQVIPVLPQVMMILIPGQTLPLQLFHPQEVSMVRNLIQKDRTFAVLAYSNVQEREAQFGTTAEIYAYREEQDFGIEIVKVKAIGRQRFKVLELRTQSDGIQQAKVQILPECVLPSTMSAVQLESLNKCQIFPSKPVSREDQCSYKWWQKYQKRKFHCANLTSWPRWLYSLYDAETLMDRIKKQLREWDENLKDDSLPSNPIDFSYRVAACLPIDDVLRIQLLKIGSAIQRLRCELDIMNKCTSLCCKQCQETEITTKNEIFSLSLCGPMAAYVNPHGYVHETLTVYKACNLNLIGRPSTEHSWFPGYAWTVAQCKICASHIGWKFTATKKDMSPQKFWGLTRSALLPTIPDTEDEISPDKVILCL

One may read the inhibition as the relative decrease from the control value, in per cent. Turning to `N#Cc1ccc(N2CCC(C(=O)Nc3ccc(CC4CCN(CC5CCN(c6ccc7c(c6)C(=O)N(C6CCC(=O)NC6=O)C7=O)CC5)CC4)cn3)CC2)cc1C(F)(F)F` (stereo not drawn) [Example 164, 1-(4-cyano-3-(trifluoromethyl)phenyl)-N-(5-((1-((1-(2-(2,6-dioxopiperidin-3-yl)-1,3-dioxoisoindolin-5-yl)piperidin-4-yl)methyl)piperidin-4-yl)methyl)pyridin-2-yl)piperidine-4-carboxamide], the inhibition at 0.01 µM was determined as 79%, the inhibition at 0.1 µM was 96% and the inhibition at 1 µM was found to be 97%.

`N#Cc1ccc(N2CCC(C(=O)Nc3ccc(CCN4CCC(CN5CCN(c6ccc7c(c6)C(=O)N(C6CCC(=O)NC6=O)C7=O)CC5)CC4)cn3)CC2)cc1C(F)(F)F` (stereo not drawn) [Example 165, 1-(4-cyano-3-(trifluoromethyl)phenyl)-N-(5-(2-(4-((4-(2-(2,6-dioxopiperidin-3-yl)-1,3-dioxoisoindolin-5-yl)piperazin-1-yl)methyl)piperidin-1-yl)ethyl)pyridin-2-yl)piperidine-4-carboxamide]: the inhibition at 0.01 µM worked out at 42%, the inhibition at 0.1 µM turned out to be 87% and the inhibition at 1 µM is 95%.

Take `N#Cc1ccc(N2CCC(C(=O)Nc3ccc(CCN4CCN(CC5CCN(c6ccc7c(c6)C(=O)N(C6CCC(=O)NC6=O)C7=O)CC5)CC4)cn3)CC2)cc1C(F)(F)F` (stereo not drawn) [Example 166, 1-(4-cyano-3-(trifluoromethyl)phenyl)-N-(5-(2-(4-((1-(2-(2,6-dioxopiperidin-3-yl)-1,3-dioxoisoindolin-5-yl)piperidin-4-yl)methyl)piperazin-1-yl)ethyl)pyridin-2-yl)piperidine-4-carboxamide]: the inhibition at 0.01 µM is 69%, the inhibition at 0.1 µM was 96% and the inhibition at 1 µM came to 97%.

In the case of `N#Cc1ccc(N2CCC(C(=O)Nc3ccc(CCN4CCC(Oc5ccc6c(c5)C(=O)N(C5CCC(=O)NC5=O)C6=O)CC4)cn3)CC2)cc1C(F)(F)F` (stereo not drawn) [Example 167, 1-(4-cyano-3-(trifluoromethyl)phenyl)-N-(5-(2-(4-((2-(2,6-dioxopiperidin-3-yl)-1,3-dioxoisoindolin-5-yl)oxy)piperidin-1-yl)ethyl)pyridin-2-yl)piperidine-4-carboxamide], the inhibition at 0.01 µM turned out to be 25%, the inhibition at 0.1 µM is 67% and the inhibition at 1 µM stood at 85%.

For `N#Cc1ccc(N2CCC(C(=O)Nc3ccc(OCCN4CCN(CC5CCN(c6ccc7c(c6)C(=O)N(C6CCC(=O)NC6=O)C7=O)CC5)CC4)cn3)CC2)cc1C(F)(F)F` (stereo not drawn) [Example 168, 1-(4-cyano-3-(trifluoromethyl)phenyl)-N-(5-(2-(4-((1-(2-(2,6-dioxopiperidin-3-yl)-1,3-dioxoisoindolin-5-yl)piperidin-4-yl)methyl)piperazin-1-yl)ethoxy)pyridin-2-yl)piperidine-4-carboxamide], the inhibition at 0.01 µM is 73%, the inhibition at 0.1 µM was 97% and the inhibition at 1 µM was found to be 99%.

As to `N#Cc1ccc(N2CCC(C(=O)Nc3ccc(OC4CCN(CC5CCN(c6cc7c(cc6F)C(=O)N(C6CCC(=O)NC6=O)C7=O)CC5)CC4)cn3)CC2)cc1C(F)(F)F` (stereo not drawn) [Example 170, 1-(4-cyano-3-(trifluoromethyl)phenyl)-N-(5-((1-((1-(2-(2,6-dioxopiperidin-3-yl)-6-fluoro-1,3-dioxoisoindolin-5-yl)piperidin-4-yl)methyl)piperidin-4-yl)oxy)pyridin-2-yl)piperidine-4-carboxamide], the inhibition at 0.01 µM was 52%, the inhibition at 0.1 µM was 90% and the inhibition at 1 µM came out at 97%.

For the molecule `N#Cc1ccc(N2CCC(C(=O)Nc3ccc(OC4CCN(CC5CN(c6ccc7c(c6)C(=O)N(C6CCC(=O)NC6=O)C7=O)C5)CC4)cn3)CC2)cc1C(F)(F)F` (stereo not drawn) [Example 171, 1-(4-cyano-3-(trifluoromethyl)phenyl)-N-(5-((1-((1-(2-(2,6-dioxopiperidin-3-yl)-1,3-dioxoisoindolin-5-yl)azetidin-3-yl)methyl)piperidin-4-yl)oxy)pyridin-2-yl)piperidine-4-carboxamide], the inhibition at 0.01 µM was determined as 69%, the inhibition at 0.1 µM amounted to 93% and the inhibition at 1 µM was 95%.

`CC1(CN2CCC(Oc3ccc(NC(=O)C4CCN(c5ccc(C#N)c(C(F)(F)F)c5)CC4)nc3)CC2)CN(c2ccc3c(c2)C(=O)N(C2CCC(=O)NC2=O)C3=O)C1` (stereo not drawn) [Example 172, 1-(4-cyano-3-(trifluoromethyl)phenyl)-N-(5-((1-((1-(2-(2,6-dioxopiperidin-3-yl)-1,3-dioxoisoindolin-5-yl)-3-methylazetidin-3-yl)methyl)piperidin-4-yl)oxy)pyridin-2-yl)piperidine-4-carboxamide]: the inhibition at 0.01 µM is 56%, the inhibition at 0.1 µM amounted to 91% and the inhibition at 1 µM worked out at 91%.

With `N#Cc1ccc(N2CCC(C(=O)Nc3ccc(OC4CN(CC5CCN(c6ccc7c(c6)C(=O)N(C6CCC(=O)NC6=O)C7=O)CC5)C4)cn3)CC2)cc1C(F)(F)F` (stereo not drawn) [Example 173, 1-(4-cyano-3-(trifluoromethyl)phenyl)-N-(5-((1-((1-(2-(2,6-dioxopiperidin-3-yl)-1,3-dioxoisoindolin-5-yl)piperidin-4-yl)methyl)azetidin-3-yl)oxy)pyridin-2-yl)piperidine-4-carboxamide], the inhibition at 0.01 µM is 58%, the inhibition at 0.1 µM is 90% and the inhibition at 1 µM is 92%.

In the case of `N#Cc1ccc(N2CCC(C(=O)Nc3ccc(OCC4CCN(CC5CCN(c6ccc7c(c6)C(=O)N(C6CCC(=O)NC6=O)C7=O)CC5)CC4)cn3)CC2)cc1C(F)(F)F` (stereo not drawn) [Example 174, 1-(4-cyano-3-(trifluoromethyl)phenyl)-N-(5-((1-((1-(2-(2,6-dioxopiperidin-3-yl)-1,3-dioxoisoindolin-5-yl)piperidin-4-yl)methyl)piperidin-4-yl)methoxy)pyridin-2-yl)piperidine-4-carboxamide], the inhibition at 0.01 µM turned out to be 73%, the inhibition at 0.1 µM turned out to be 91% and the inhibition at 1 µM is 95%.

With `N#Cc1ccc(N2CCC(C(=O)Nc3ccc(OCCC4CCN(CC5CCN(c6ccc7c(c6)C(=O)N(C6CCC(=O)NC6=O)C7=O)CC5)CC4)cn3)CC2)cc1C(F)(F)F` (stereo not drawn) [Example 175, 1-(4-cyano-3-(trifluoromethyl)phenyl)-N-(5-(2-(1-((1-(2-(2,6-dioxopiperidin-3-yl)-1,3-dioxoisoindolin-5-yl)piperidin-4-yl)methyl)piperidin-4-yl)ethoxy)pyridin-2-yl)piperidine-4-carboxamide], the inhibition at 0.01 µM was 70%, the inhibition at 0.1 µM is 95% and the inhibition at 1 µM is 97%.

For `N#Cc1ccc(N2CCC(C(=O)Nc3ccc(OCCN4CCN(CC(=O)Nc5cccc(NC6CCC(=O)NC6=O)c5)CC4)cn3)CC2)cc1C(F)(F)F` (stereo not drawn) [Example 176, 1-(4-cyano-3-(trifluoromethyl)phenyl)-N-(5-(2-(4-(2-((3-((2,6-dioxopiperidin-3-yl)amino)phenyl)amino)-2-oxoethyl)piperazin-1-yl)ethoxy)pyridin-2-yl)piperidine-4-carboxamide], the inhibition at 0.01 µM was -2%, the inhibition at 0.1 µM was -22% and the inhibition at 1 µM is 16%.

Consider `N#Cc1ccc(N2CCC(C(=O)Nc3ccc(N4CCC(CN5CCN(CC(=O)Nc6cccc(NC7CCC(=O)NC7=O)c6)CC5)CC4)cn3)CC2)cc1C(F)(F)F` (stereo not drawn) [Example 177, 1-(4-cyano-3-(trifluoromethyl)phenyl)-N-(5-(4-((4-(2-((3-((2,6-dioxopiperidin-3-yl)amino)phenyl)amino)-2-oxoethyl)piperazin-1-yl)methyl)piperidin-1-yl)pyridin-2-yl)piperidine-4-carboxamide], for which the inhibition at 0.01 µM was 14%, the inhibition at 0.1 µM stood at 37% and the inhibition at 1 µM stood at 35%.

Turning to `N#Cc1ccc(N2CCC(C(=O)Nc3ccc(OCCN4CCC(Oc5ccc6c(c5)C(=O)N(C5CCC(=O)NC5=O)C6=O)CC4)cn3)CC2)cc1C(F)(F)F` (stereo not drawn) [Example 178, 1-(4-cyano-3-(trifluoromethyl)phenyl)-N-(5-(2-(4-((2-(2,6-dioxopiperidin-3-yl)-1,3-dioxoisoindolin-5-yl)oxy)piperidin-1-yl)ethoxy)pyridin-2-yl)piperidine-4-carboxamide], the inhibition at 0.01 µM came to 23%, the inhibition at 0.1 µM stood at 64% and the inhibition at 1 µM was 87%.

Regarding `CC1(CN2CCN(CC3CCN(c4ccc5c(c4)C(=O)N(C4CCC(=O)NC4=O)C5=O)CC3)CC2)CN(c2ccc(NC(=O)C3CCN(c4ccc(C#N)c(C(F)(F)F)c4)CC3)nc2)C1` (stereo not drawn) [Example 179, 1-(4-cyano-3-(trifluoromethyl)phenyl)-N-(5-(3-((4-((1-(2-(2,6-dioxopiperidin-3-yl)-1,3-dioxoisoindolin-5-yl)piperidin-4-yl)methyl)piperazin-1-yl)methyl)-3-methylazetidin-1-yl)pyridin-2-yl)piperidine-4-carboxamide], the inhibition at 0.01 µM is 73%, the inhibition at 0.1 µM turned out to be 98% and the inhibition at 1 µM turned out to be 97%.

Regarding `CC1(CN2CCC(COc3ccc4c(c3)C(=O)N(C3CCC(=O)NC3=O)C4=O)CC2)CN(c2ccc(NC(=O)C3CCN(c4ccc(C#N)c(C(F)(F)F)c4)CC3)nc2)C1` (stereo not drawn) [Example 180, 1-(4-cyano-3-(trifluoromethyl)phenyl)-N-(5-(3-((4-(((2-(2,6-dioxopiperidin-3-yl)-1,3-dioxoisoindolin-5-yl)oxy)methyl)piperidin-1-yl)methyl)-3-methylazetidin-1-yl)pyridin-2-yl)piperidine-4-carboxamide], the inhibition at 0.01 µM is 36%, the inhibition at 0.1 µM is 97% and the inhibition at 1 µM stood at 98%.
